Experimental findings from EP1727814B1, “NUCLEOSIDE ANALOGUES WITH ANTIVIRAL ACTIVITY” (Universita' Degli Studi Di Catania, priority 2004, dated 2005) are described below.

Assay [1] deals with HSV-2, strain "G". The experiment in a line: Plaque reduction assay in Vero cells. As to conditions: Human alphaherpesvirus 2; HSV-2, Vero cells, 72h; read-out: EC50 (concentration capable of reducing the formation of plaques by 50%). The assay is classed as cell-based, herpes simplex type 2 (HSV-2). Here is the method:
(§1) To assay the activity of the compounds also towards herpes virus infections, the model for in vitro transmission of herpes simplex type 1 (HSV-1) and of herpes simplex type 2 (HSV-2) to permissive cells of the Vero cell line and plaque reduction assay were used. Vero cells were transferred and cultivated for 24h at 37°C in six-well plates for the cultures to reach confluence. After removal of the culture medium in the wells, a suspension was added containing 100 plaque forming units (PFU) of HSV-1, strain "F", or HSV-2, strain "G" in 100 µl of medium. After one hour of incubation the appropriate quantities of compounds were added diluted in culture medium with the addition of serum 2% and methylcellulose 0.8% to obtain final concentrations of the compounds ranging from 1 µM to 400 µM. The cultures were then incubated for 72h, the medium was removed from the wells and stained with crystal violet 0.8%. After removing the wash liquid, the plates were left to dry and the number of plaques was determined. Acyclovir was used as the positive reference control. A double assay was performed and the values of EC50 (concentration capable of reducing the formation of plaques by 50%) were calculated by extrapolating the mean number of plaques from the plot towards the corresponding concentrations of the compounds.
Background: In a plaque reduction assay, fewer plaques than in the control indicate reduced infectivity or spread.

Assay [2] concerns HSV-1, strain "F". The experiment in a line: Plaque reduction assay in Vero cells. Particulars: Human alphaherpesvirus 1; HSV-1, Vero cells, 72h; read-out: EC50 (concentration capable of reducing the formation of plaques by 50%). Format: cell-based, herpes simplex type 1 (HSV-1). How it is done: as §1
The subject of assay [3] is RT of avian retrovirus. The experiment in a line: Inhibition in vitro of retroviral reverse transcriptase (cDNA synthesis, 32P incorporation, gel electrophoresis). As to conditions: after preincubation with PBMC lysates. Format: biochemical. The source says:
In addition to the tests on cells susceptible to infection by human retroviruses, an assay was set up to highlight the capacity of the compounds A, B and C to inhibit in vitro the activity of a retroviral reverse transcriptase (RT). In short, the assay is based on the principle that starting from an RNA template, it is possible to evaluate the effect of inhibition of the capacity of the RT to synthesise cDNA, by identifying the cDNA fragment of neosynthesis, following gel electrophoretic run, thanks to incorporation of a nucleotide precursor labelled with phosphorus 32 (P32). […] As in order to be utilisable by the RT, the nucleoside analogues must be transformed into their triphosphate form, the compounds in question were placed in contact with cell protein extracts containing kinases capable of inducing phosphorylations. For this purpose protein extracts were used, obtained by lysis from a million PBMC previously stimulated in 48h of culture with PHA. The nucleoside compounds were incubated in ice for one hour with the lysates. After incubation the samples were taken to 95°C in order to inactivate the cellular enzymes present in the lysates. […]

The subject of assay [4] is HIV-1. The experiment in a line: Anti-HIV activity in CEM cells, p24 ELISA in supernatant. (ELISA stands for enzyme-linked immunosorbent assay.)
Experimental: The strain HIV-1 mixed with HIV-IIIB produced in chronically infected cells of lymphoid origin H-9 and therefore capable of growing the virus stably in a culture, was used to assay the anti-HIV activity. Viral inoculation was prepared by low speed centrifugation (3000 rpm) of the supernatant from the line producing the virus and by subsequent ultracentrifugation (40,000 rpm). The concentrated virus was titrated in TCID 50%/ml (units infecting 50% of the cultures). Cells from the lymphoid T-cell line, CEM, were used as cells to infect. The target cells were placed in contact with various quantities of TCID 50% of titrated virus, in an interval ranging from a MOl (multiplicity of infection) of 0.0001 and 0.1 TCID 50%/cell.
The cultures were kept for 7 days at 37°C in the presence of fetal bovine serum 2%. After 2-4 days of culture the medium was removed and replaced with fresh medium to which the compounds in question were again added.
After seven days of setting up the culture, the infection was evaluated using the ELISA method, measuring the production of HIV-1 p24 protein in the supernatant of infected cultures, treated and untreated.
Assay [5] relates to HTLV-1. The experiment in a line: Inhibition of HTLV-1 transmission to lymphomonocytes by co-cultivation (DNA-PCR, RT-PCR, Tax Western blot). The assay is classed as cell-based, HTLV-1 (human T lymphotropic retrovirus type 1). As to conditions: lowest concentrations (5µM and 1 µM). Here is the method:
(§2) To assay the capacity to inhibit transmission, lymphomonocytes of adult peripheral blood were separated by density gradient centrifugation and then infected with HTLV-1 by co-cultivation with a chronically infected line that produces viruses, following irradiation of the donor cells (Miyoshi et al. Nature 1981, 296: 770-772).
(§3) The assayed nucleoside analogues (compounds A, B and C) were added at different concentrations at the moment of infection and the treatment was repeated at 3, 7 and 10 days from the first exposure.
The infection was monitored by verifying that the cells treated had become infected, compared to untreated controls, four weeks after infection. The infection was determined by monitoring the presence of proviral DNA and the viral RNA expression, by DNA-PCR and RT-PCR assay respectively. With these techniques it is possible to amplify and highlight the viral genome of HTLV-1 integrated into the host cell, that is virus-specific RNA-messengers, by the use of specific oligonucleotides for viral regions.
For further evaluation of the infection the viral protein expression of HTLV-1 Tax was also highlighted using Western blot analysis with specific monoclonal antibodies.

Assay [6] concerns lymphomonocytes of adult peripheral blood. The assay is described as follows: Proliferative response of infected and uninfected lymphomonocyte cultures. The assay is classed as cell-based. As to conditions: lowest concentrations (5µM and 1 µM). Here is the method: as §2, §3
Moreover, the infected and uninfected cultures, treated or untreated with the compounds in question, were assayed to determine the proliferative response during infection, in order to verify, in addition to the antiviral effect also any antiproliferative effect with regard to the infected cultures.

[7] abbreviates: Human immunodeficiency virus 1, CCRF-CEM, 168 h, read-out: inhibition of the production of p24 in the supernatant of infected cultures.

On to `Nc1nc2c(ncn2COCCO)c(=O)[nH]1` [acyclovir, Acyclovir, reference compound], for which the EC50 is 32 µM in assay [1] and 14 µM in assay [2].
The term inhibition denotes the percentage by which the read-out fell short of the control. For the molecule `Cc1cn([C@H]2C[C@H](N=[N+]=[N-])[C@@H](CO)O2)c(=O)[nH]c1=O` [AZT, zidovudine, reference compound], the “inhibition of RT activity” value in assay [3] (0.1 and 10 µM) was “capable of inhibiting RT activity”. For the same molecule, in assay [4] (setting [7]), the inhibition at 0.004 µM was 60%, the inhibition at 0.04 µM was 80% and the inhibition at 0.4 µM stood at 98%.
With `CCOP(=O)(CC1CC(n2ccc(N)nc2=O)ON1C)OCC` (stereo not shown) [Compound A], the EC50 in assay [1] is 72 µM. Moreover, the EC50 in assay [2] worked out at 48 µM. In assay [4] (setting [7]), the inhibition at 0.04 µM was determined as 45% and the inhibition at 0.4 µM is 70%.
Turning to `CCOP(=O)(CC1CC(n2cc(C)c(=O)[nH]c2=O)ON1C)OCC` (stereo not shown) [Compound B], in assay [1], the EC50 amounted to 78 µM. The EC50 in assay [2] worked out at 62 µM. In assay [4] (setting [7]), the inhibition at 0.04 µM was determined as 50% and the inhibition at 0.4 µM worked out at 70%.
As to `CCOP(=O)(CC1CC(n2cc(F)c(=O)[nH]c2=O)ON1C)OCC` (stereo not shown) [Compound C], the “inhibition of RT activity” value in assay [3] (0.1, 1 and 20 µM) is “capable of inhibiting RT activity”. Also, in assay [5], the “protection from the infection” value is listed as “total protection”. Further, the EC50 in assay [1] was determined as 56 µM. Moreover, the antiproliferative action entry in assay [6] is “poor or no antiproliferative action”. Moreover, the EC50 in assay [2] is 34 µM. Also, the “inhibition of the production of p24 in the supernatant of infected cultures” value in assay [4] (0.004 µM, CEM cells, 7 days) is “did not cause inhibition”. In addition, in assay [4] (setting [7]), the inhibition at 0.04 µM worked out at 60% and the inhibition at 0.4 µM worked out at 75%.
